Peptide text beside a SMILES is read from it.
Key:
[1] = target: FOXO4 FHD (Homo sapiens, UniProt P98177); experiment: FPA competition assay; type: binding; settings: FPA competition analysis
[2] = test system: FOXO4 foci in senescent A375 cells; experiment: Immunofluorescence of FOXO4 foci in nuclei of senescent A375 cells; type: cell-based, Human; settings: doxorubicin-induced senescent A375 cells; 30 μM CPP-CAND, 24 h; vs DMSO mock
[3] = test system: caspase 3/7; experiment: Caspase 3/7 activity; type: cell-based, Human; settings: senescent A375 cells; 20 μM, 24 h
[4] = test system: A375 cells; experiment: MTS cell viability assay, dividing vs cisplatin; type: cell-based, Human; settings: dividing vs CDDP (4 µM)-induced senescent A375 cells

Chain of FOXO4 FHD (P98177 95-195): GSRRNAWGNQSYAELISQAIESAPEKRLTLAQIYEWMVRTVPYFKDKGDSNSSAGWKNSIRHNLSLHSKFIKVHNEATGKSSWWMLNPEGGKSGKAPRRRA

## CC[C@H](C)[C@H](NC(=O)[C@H](C)NC(=O)[C@H](C)NC(=O)[C@@H]1CCCN1C(=O)[C@H](CO)NC(=O)[C@H](CC(C)C)NC(=O)[C@H](CCSC)NC(=O)[C@H](CC(C)C)NC(=O)[C@H](C)N)C(=O)N[C@@H](C)C(=O)N[C@@H](CCC(N)=O)C(=O)N[C@@H](Cc1c[nH]c2ccccc12)C(=O)N[C@@H](Cc1ccccc1)C(=O)N[C@H](C(=O)N[C@@H](C)C(=O)N[C@@H](C)C(=O)O)[C@@H](C)O [CAND] (H-ALMLSPAAIAQWFTAA-OH; N-terminus and C-terminus assumed)
[1]
  Enhancement of inhibitory ability compared to p53 TAD PEP: approximately three-fold

## CC[C@H](C)[C@H](NC(=O)[C@H](C)NC(=O)[C@H](C)NC(=O)[C@@H]1CCCN1C(=O)[C@H](CO)NC(=O)[C@H](CC(C)C)NC(=O)[C@H](CCSC)NC(=O)[C@H](CC(C)C)NC(=O)[C@H](C)NC(=O)[C@@H]1CCCN1C(=O)[C@@H]1CCCN1C(=O)[C@H](CCCNC(=N)N)NC(=O)[C@H](CCCNC(=N)N)NC(=O)[C@H](CCCNC(=N)N)NC(=O)[C@H](CCC(N)=O)NC(=O)[C@H](CCCNC(=N)N)NC(=O)[C@H](CCCNC(=N)N)NC(=O)[C@H](CCCCN)NC(=O)[C@H](CCCCN)NC(=O)[C@H](CCCNC(=N)N)NC(=O)CN)C(=O)N[C@@H](C)C(=O)N[C@@H](CCC(N)=O)C(=O)N[C@@H](Cc1c[nH]c2ccccc12)C(=O)N[C@@H](Cc1ccccc1)C(=O)N[C@H](C(=O)N[C@@H](C)C(=O)N[C@@H](C)C(=O)O)[C@@H](C)O [CPP-CAND] (H-GRKKRRQRRRPPALMLSPAAIAQWFTAA-OH; N-terminus and C-terminus assumed)
[2]
  Reduction in number of FOXO4 foci in nuclei: approximately 7.1 fold
[3]
  Caspase 3/7 activity (percentage of green fluorescent cells), senescent cells: 44%
[4]
  SI75 (selectivity index from IC75 values): approximately 2.4

From article doi:10.1101/2024.09.04.610228v1 (bioRxiv, 2024)
